Measured values from patent US12122811B2, “BDNF mimetic peptide amphiphiles” (Northwestern University, priority 2018, dated 2024).
Positions of bridges follow the written chain, without caps; N, C: chain ends. Non-standard residues stand in square brackets, D forms with d. Residues, ends and D or L forms follow the SMILES beside them. Chains are numbered I, II in the order given. *: point of attachment. PEG6 = NCCOCCOCCOCCOCCOCCOCCC(=O)O; Palmitoyl = CCCCCCCCCCCCCCCC(=O)*

Tested on: primary mouse cortical neurons
Test: Morphometric analysis of neurites (MAP2, SMI312 immunocytochemistry)
Format: cell-based
Conditions: 24 h
Procedure: For morphometric analysis and cell viability assays, cells were cultured in 24 or 48 well plates at a density of 25,000 or 40,000 cells/well respectively, for three days before being treated. Cells were then treated for 24 hours, 3 days or 7 DIV. Samples were fixed in 4% PFA for 15 min (20 min for gels) at room temperature (RT) for immunofluorescence studies.
Immunofluorescence. For immunofluorescence, fixed samples (4% PFA for 15 min at RT) were incubated with primary antibodies overnight and Alexa 488 or Alexa 555 secondary antibodies (1:2000, Invitrogen) were used for 2 h at room temperature. The following primary antibodies were used: mouse anti-Tuj-1 (neuronal marker 1:4000, BioLegend), rabbit anti-Tuj-1 (neuronal marker, 1:4000, BioLegend) rabbit anti-MAP2 (marker for mature neurons 1:2000, BioLegend), mouse anti-SMI312 (axonal filament marker 1:1000, BioLegend), rabbit anti-Synaptophysin (marker for synaptic vesicles, 1:1000, Abcam) and DAPI (nuclear stain, 1:2000, Invitrogen). If not already in a glass bottom plate (MatTek), the preparations were mounted with Immu-Mount (Thermo Scientific) for imaging.
Imaging and Morphometric Analysis. Throughout the experiments, a digital camera (Nikon) mounted on a tissue culture microscope was used to take bright field images of cells. Nikon A1R confocal laser-scanning microscope with GaAsP detectors was used to visualize and image fluorescent preparations. Images were processed using an ImageJ (National Institutes of Health) plugin. Confocal images were reconstructed by NIS Elements Advanced Research Microscope Imaging software (version 4.20) or Imaris program (version 8.1, Bitplane Scientific software) for 3D interactive data viewing with normal or shadow projections of cells screened under Nikon A1R confocal laser-scanning microscope with GaAsP detectors.
For morphometric analysis, NeuronJ was used to trace and measure neuronal extensions.^4 For quantification of number of primary neurites and neurite length, a minimum of 60 randomly selected cells were analyzed with a minimum of 2 independent batches of culture for each condition. The images were arranged in Adobe Photoshop (v.7.0), with adjustments for contrast, brightness and color balance to obtain optimal visual reproduction of data.

Q: Which results are given for `CCCCCCCCCCCCCCCC(=O)N[C@H](C(=O)N[C@H](C(=O)N[C@@H](C)C(=O)N[C@@H](C)C(=O)N[C@@H](CCC(=O)O)C(=O)N[C@@H](CCC(=O)O)C(=O)N[C@@H](CCC(=O)O)C(=O)N[C@@H](CCC(=O)O)C(=O)NCCOCCOCCOCCOCCOCCOCCC(=O)NCCCC[C@@H]1NC(=O)[C@H]2CCCN2C(=O)[C@H](CCCNC(=N)N)NC(=O)[C@H](CCCCN)NC(=O)[C@H](CCCCN)NC1=O)C(C)C)C(C)C` [BDNF PA, RKK(aK)(dP)-(PEG6 Spacer)-EEEEAAVV-C16 (SEQ ID NO: 5)] (I: Palmitoyl-VVAAEEEE[PEG6] / II: cyclo(KKKR[dP]); amide I:C-II:1)?
A: neurite number, BDNF PA versus native BDNF protein: no statistical differences; number of primary neurites (vs control conditions): positive tendency; number of secondary neurites (vs control conditions): significant increase; total dendrite and axon length (vs native BDNF protein and control conditions): significant increase
